Read-outs that look alike come from different tables or passages of the source.
How the values were obtained:
[1] = system: human multiple myeloma cell line, OPM-2; assay: Cell viability assay (OPM-2 10 FBS), CellTiter-Glo; type: cell-based
Summary of the method: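 Cells were seeded at 3000 cells/well in RPMI 1640 with 10% FBS and exposed to serially diluted compounds for 16 h at 37 °C, 5% CO2.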

[2] = biological target: recombinant human Mcl-1 (residues 171-327) / Bim interaction (Homo sapiens (Human), UniProt Q07820); assay: biochemical; type: binding; settings: read-out: Mcl-1 HTRF IC50
Sequence of recombinant human Mcl-1 (residues 171-327) / Bim interaction (Q07820 171-327): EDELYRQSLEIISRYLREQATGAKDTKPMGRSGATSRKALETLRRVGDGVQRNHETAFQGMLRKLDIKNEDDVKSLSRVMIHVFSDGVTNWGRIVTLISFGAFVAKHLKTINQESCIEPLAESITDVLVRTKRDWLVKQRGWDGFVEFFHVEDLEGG

[3] = read-out: OPM-2 10% FBS IC50 IP, OPM-2 cells, 10% FBS, 16 h, CellTiter-Glo
[4] = TR-FRET, Mcl-1(171-327) / biotin-Bim (51-76)
[5] = Homo sapiens, OPM-2, 16 h, read-out: OPM-2 10% FBS IC50 IP, OPM-2 cells, 10% FBS, 16 h incubation
[6] = 0.1 nM Mcl-1(171-327), 0.05 nM biotin-Bim (51-76)
[7] = Homo sapiens, OPM-2, 16 h, read-out: OPM-2 10% FBS IC50 IP, OPM-2 cells, 10% FBS, 16 h, CellTiter-Glo

SMILES | IC50 [1, 3] | IC50 [2, 4] | IC50 [1, 5] | IC50 [2, 6] | IC50 [1, 7]
CO[C@@]1(C)/C=C/C[C@H](C)[C@@H](CCOS(C)(=O)=O)S(=O)(=O)NC(=O)c2ccc3c(c2)N(C[C@@H]2CC[C@H]21)C[C@@]1(CCCc2cc(Cl)ccc21)CO3 (single isomer, unassigned) [Example 100598] | 188 nM | 0.077 nM |  |  | 
C[C@@H]1[C@@H](C)CCC[C@@](O)(C2CCN(C)CC2)[C@@H]2CC[C@H]2CN2C[C@@]3(CCCc4cc(Cl)ccc43)COc3ccc(cc32)C(=O)NS1(=O)=O [Example 100382, (1S,3′R,6′R,7′R,11′S,12′R)-6-chloro-7′-hydroxy-11′,12′-dimethyl-7′-(1-methyl-4-piperidinyl)-3,4-dihydro-2H,15′H-spiro[naphthalene-1,22′-[20]oxa[13]thia[1,14]diazatetracyclo [14.7.2.0~3,6~.0~19,24~]pentacosa[16,18,24]trien]-15′-one 13′,13′-dioxide] | 312 nM | 0.471 nM |  |  | 
CO[C@]1(CN2C[C@@H](C)N[C@@H](C)C2)/C=C/C[C@H](C)[C@@H](C)S(=O)(=O)NC(=O)c2ccc3c(c2)N(C[C@@H]2CC[C@H]21)C[C@@]1(CCCc2cc(Cl)ccc21)CO3 [Example 329, (1S,3′R,6′R,7′R,8′E,11′S,12′R)-6-chloro-7′-(((3R,5S)-3,5-dimethyl-1-piperazinyl)methyl)-7′-methoxy-11′,12′-dimethyl-3,4-dihydro-2H,15′H-spiro[naphthalene-1,22′-[20]oxa[13]thia[1,14]diazatetracyclo [14.7.2.0~3,6~.0~19,24~]pentacosa[8,16,18,24]tetraen]-15′-one 13′,13′-dioxide] |  |  | 243 nM | 0.137 nM | 
CC(C)C[C@@]1(O)/C=C/C[C@H](C)[C@@H](C)S(=O)(=O)NC(=O)c2ccc3c(c2)N(C[C@@H]2CC[C@H]21)C[C@@]1(CCCc2cc(Cl)ccc21)CO3 [Example 100220, (1S,3′R,6′R,7′R,8′E,11′S,12′R)-6-chloro-7′-hydroxy-11′,12′-dimethyl-7′-(2-methylpropyl)-3,4-dihydro-2H,15′H-spiro[naphthalene-1,22′-[20]oxa[13]thia[1,14]diazatetracyclo [14.7.2.0~3,6~.0~19,24~]pentacosa[8,16,18,24]tetraen]-15′-one 13′,13′-dioxide] |  | 7.42 nM |  |  | 6840 nM
CO[C@@H](C(=O)N(C)C)[C@]1(O)/C=C/C[C@H](C)[C@@H](C)S(=O)(=O)NC(=O)c2ccc3c(c2)N(C[C@@H]2CC[C@H]21)C[C@@]1(CCCc2cc(Cl)ccc21)CO3 [Example 100285, (2R)-2-((1S,3′R,6′R,7′S,8′E,11′S,12′R)-6-chloro-7′-hydroxy-11′,12′-dimethyl-13′,13′-dioxido-15′-oxo-3,4-dihydro-2H-spiro[naphthalene-1,22′-[20]oxa[13]thia[1,14]diazatetracyclo [14.7.2.0~3,6~.0~19,24~]pentacosa[8,16,18,24]tetraen]-7′-yl)-2-methoxy-N,N-dimethylethanamide] |  | 0.241 nM |  |  | 642 nM
COCC[C@@H]1[C@@H](C)C/C=C/[C@@](CN2CCN(C(C)(C)C)CC2)(OC)[C@@H]2CC[C@H]2CN2C[C@@]3(CCCc4cc(Cl)ccc43)COc3ccc(cc32)C(=O)NS1(=O)=O [Example 189, (1S,3′R,6′R,7′R,8′E,11′S,12′R)-7′-((4-tert-butyl-1-piperazinyl)methyl)-6-chloro-7′-methoxy-12′-(2-methoxyethyl)-11′-methyl-3,4-dihydro-2H,15′H-spiro[naphthalene-1,22′-[20]oxa[13]thia[1,14]diazatetracyclo [14.7.2.0~3,6~.0~19,24~]pentacosa[8,16,18,24]tetraen]-15′-one 13′,13′-dioxide] |  |  | 33 nM | 0.084 nM | 
CO[C@]1(C)CCC[C@H](C)[C@@H](C)S(=O)(=O)NC(=O)c2ccc3c(c2)N(C[C@@H]2CC[C@H]21)C[C@@]1(CCCc2cc(Cl)ccc21)CO3 (single isomer, unassigned) [Example 100212] | 1620 nM | 0.901 nM |  |  | 
COCCOC[C@@]1(O)CCC[C@H](C)[C@@H](C)S(=O)(=O)NC(=O)c2ccc3c(c2)N(C[C@@H]2CC[C@H]21)C[C@@]1(CCCc2cc(Cl)ccc21)CO3 [Example 100193, (1S,3′R,6′R,7′R,11′S,12′R)-6-chloro-7′-hydroxy-7′-((2-methoxyethoxy)methyl)-11′,12′-dimethyl-3,4-dihydro-2H,15′H-spiro[naphthalene-1,22′-[20]oxa[13]thia[1,14]diazatetracyclo [14.7.2.0~3,6~.0~19,24~]pentacosa[16,18,24]trien]-15′-one 13′,13′-dioxide] |  | 0.856 nM |  |  | 1300 nM
CO[C@@]1(CN2CCN(C3CN(C(C)=O)C3)CC2)/C=C/C[C@H](C)[C@@H](C)S(=O)(=O)NC(=O)c2ccc3c(c2)N(C[C@@H]2CC[C@H]21)C[C@@]1(CCCc2cc(Cl)ccc21)CO3 [Example 280, (1S,3′R,6′R,7′S,8′E,11′S,12′R)-7′-((4-(1-acetyl-3-azetidinyl)-1-piperazinyl)methyl)-6-chloro-7′-methoxy-11′,12′-dimethyl-3,4-dihydro-2H,15′H-spiro[naphthalene-1,22′-[20]oxa[13]thia[1,14]diazatetracyclo [14.7.2.0~3,6~.0~19,24~]pentacosa[8,16,18,24]tetraen]-15′-one 13′,13′-dioxide] |  |  | 73 nM | 0.052 nM | 
CC(C)CO[C@]1(C=O)/C=C/C[C@H](C)[C@@H](C)S(=O)(=O)NC(=O)c2ccc3c(c2)N(C[C@@H]2CC[C@H]21)C[C@@]1(CCCc2cc(Cl)ccc21)CO3 [Example 100603, (1S,3′R,6′R,7′R,8′E,11′S,12′R)-6-chloro-11′,12′-dimethyl-7′-(2-methylpropoxy)-15′-oxo-3,4-dihydro-2H-spiro[naphthalene-1,22′-[20]oxa[13]thia[1,14]diazatetracyclo [14.7.2.0~3,6~.0~19,24~]pentacosa[8,16,18,24]tetraene]-7′-carbaldehyde 13′,13′-dioxide] |  | 0.651 nM |  |  | 1570 nM
CO[C@@]1(CS(C)(=O)=O)/C=C/C[C@H](C)[C@@H](C)S(=O)(=O)NC(=O)c2ccc3c(c2)N(C[C@@H]2CC[C@H]21)C[C@@]1(CCCc2cc(Cl)ccc21)CO3 [Example 100459, (1S,3′R,6′R,7′S,8′E,11′S,12′R)-6-chloro-7′-methoxy-11′,12′-dimethyl-7′-((methylsulfonyl)methyl)-3,4-dihydro-2H,15′H-spiro[naphthalene-1,22′-[20]oxa[13]thia[1,14]diazatetracyclo [14.7.2.0~3,6~.0~19,24~]pentacosa[8,16,18,24]tetraen]-15′-one 13′,13′-dioxide] |  | 0.685 nM |  |  | 732 nM
C[C@@H]1[C@@H](C)CCC[C@@]2(CCO2)[C@@H]2CC[C@H]2CN2C[C@@]3(CCCc4cc(Cl)ccc43)COc3ccc(cc32)C(=O)NS1(=O)=O [Example 100228, (1S,3′R,6′R,7′R,11′S,12′R)-6-chloro-11′,12′-dimethyl-3,4-dihydro-2H,15′H-dispiro[naphthalene-1,22′-[20]oxa[13]thia[1,14]diazatetracyclo [14.7.2.0~3,6~.0~19,24~]pentacosa[16,18,24]triene-7′,2″-oxetan]-15′-one 13′,13′-dioxide] |  | 0.558 nM |  |  | 3300 nM
COCC1(N(C)C(=O)C[C@]2(OC)/C=C/C[C@H](C)[C@@H](C)S(=O)(=O)NC(=O)c3ccc4c(c3)N(C[C@@H]3CC[C@H]32)C[C@@]2(CCCc3cc(Cl)ccc32)CO4)CC1 [Example 100396, 2-((1S,3′R,6′R,7′S,8′E,11′S,12′R)-6-chloro-7′-methoxy-11′,12′-dimethyl-13′,13′-dioxido-15′-oxo-3,4-dihydro-2H-spiro[naphthalene-1,22′-[20]oxa[13]thia[1,14]diazatetracyclo [14.7.2.0~3,6~.0~19,24~]pentacosa[8,16,18,24]tetraen]-7′-yl)-N-(1-(methoxymethyl)cyclopropyl)-N-methylacetamide] |  | 0.272 nM |  |  | 1470 nM
CN[C@@H]1C[C@H](C)[C@@H](C)S(=O)(=O)NC(=O)c2ccc3c(c2)N(C[C@@H]2CC[C@H]2[C@@](C)(O)C1)C[C@@]1(CCCc2cc(Cl)ccc21)CO3 [Example 100065, (1S,3′R,6′R,7′S,9′R,11′S,12′R)-6-chloro-7′-hydroxy-7′,11′,12′-trimethyl-9′-(methylamino)-3,4-dihydro-2H,15′H-spiro[naphthalene-1,22′-[20]oxa[13]thia[1,14]diazatetracyclo [14.7.2.0~3,6~.0~19,24~]pentacosa[16,18,24]trien]-15′-one 13′,13′-dioxide] | 7390 nM | 4.85 nM |  |  | 
CO[C@@]1(CN2CCN(Cc3nc(C)no3)CC2)/C=C/C[C@H](C)[C@@H](C)S(=O)(=O)NC(=O)c2ccc3c(c2)N(C[C@@H]2CC[C@H]21)C[C@@]1(CCCc2cc(Cl)ccc21)CO3 [Example 317, (1S,3′R,6′R,7′S,8′E,11′S,12′R)-6-chloro-7′-methoxy-11′,12′-dimethyl-7′-((4-((3-methyl-1,2,4-oxadiazol-5-yl)methyl)-1-piperazinyl)methyl)-3,4-dihydro-2H,15′H-spiro[naphthalene-1,22′-[20]oxa[13]thia[1,14]diazatetracyclo [14.7.2.0~3,6~.0~19,24~]pentacosa[8,16,18,24]tetraen]-15′-one 13′,13′-dioxide] |  |  | 88 nM | 0.186 nM | 

Reference: patent US10821115B2, “Compounds that inhibit Mcl-1 protein” (priority 2017, dated 2020)
